Here are results for 32 molecules from US5891877A, “Pharmaceutical compounds” (Xenova Limited, priority 1996, dated 1999).

Counter-ions that a name gives are not always drawn.

For one series, the target named is PAI-1 (Homo sapiens, UniProt P05121). Description: PAI-1 inhibition in the S2251 chromogenic substrate assay (PAI functional assay). The format is biochemical. Conditions: Table 1, second part; for inhibition at 20 µM / inhibition at 50 µM / inhibition at 100 µM: read-out: INHIBITION OF PAI-1 (degree of inhibition); for IC50: PAI-1, S2251 assay; for INHIBITION OF PAI-1 (degree of inhibition): unit assumed. The method, boiled down: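 Compound preincubated with PAI-1, then added to a tPA/plasminogen system; residual tPA activity converts plasminogen to plasmin.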
PAI-1, sequence (P05121 24-402): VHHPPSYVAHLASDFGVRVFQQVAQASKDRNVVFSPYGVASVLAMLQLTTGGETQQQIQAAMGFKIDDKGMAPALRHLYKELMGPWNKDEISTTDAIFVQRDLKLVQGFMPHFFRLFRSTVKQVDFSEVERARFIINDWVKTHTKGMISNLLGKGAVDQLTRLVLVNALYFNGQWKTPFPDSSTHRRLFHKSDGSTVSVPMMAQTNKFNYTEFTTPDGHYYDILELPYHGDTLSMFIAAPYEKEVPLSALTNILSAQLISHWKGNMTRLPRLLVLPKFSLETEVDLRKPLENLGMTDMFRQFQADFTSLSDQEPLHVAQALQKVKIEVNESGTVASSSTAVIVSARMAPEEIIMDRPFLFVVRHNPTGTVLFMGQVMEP

For series [1], the system named is cytotoxicity of vincristine. Conditions: J. Antibiotics vol XLIII No. 8, 1018-1020; cited from earlier work.

On to `CN(C)CCOCc1ccc(/C=c2\[nH]c(=O)/c(=C/c3ccoc3)[nH]c2=O)cc1` [Compound 5077, (3Z,6Z)-6-(4-(2-Dimethylaminoethoxymethyl)benzylidene)-3-(3-furylmethylene)-2,5-piperazinedione], for which the inhibition at 20 µM at PAI-1 (20 μM) was found to be 42%. Besides, the inhibition at 50 µM at PAI-1 is 46%. Besides, the inhibition at 100 µM on PAI-1 (100 μM) was 34%.

Turning to `CN(C)CCSCc1ccc(/C=c2\[nH]c(=O)/c(=C/c3ccsc3)[nH]c2=O)cc1` [Compound 5078, (3Z,6Z)-6-(4-(2-Dimethylaminoethylthiomethyl)benzylidene)-3-(3-thenylidene)-2,5-piperazinedione], the inhibition at 20 µM on PAI-1 (20 μM) was 11%. Further, at PAI-1, the inhibition at 50 µM turned out to be 67%. Moreover, the inhibition at 100 µM on PAI-1 (100 μM) was determined as 60%.

`CN(C)CC(=O)NCc1ccc(/C=c2\[nH]c(=O)/c(=C/c3ccccc3Br)[nH]c2=O)cc1` [Compound 5079, (3Z,6Z)-3-(2-Bromobenzylidene)-6-(4-dimethylaminoacetamidomethylbenzylidene)-2,5-piperazinedione]: the inhibition at 20 µM on PAI-1 (20 μM) worked out at 14%. The inhibition at 50 µM on PAI-1 amounted to 58%. For the same molecule, the inhibition at 100 µM on PAI-1 (100 μM) is 44%.

With `CN(C)CC(=O)NCc1ccc(/C=c2\[nH]c(=O)/c(=C/c3ccoc3)[nH]c2=O)cc1` [Compound 5081, (3Z,6Z)-6-(4-Dimethylaminoacetamidomethylbenzylidene)-3-(3-furylmethylene)-2,5-piperazinedione], the inhibition at 20 µM at PAI-1 (20 μM) is 50%. The inhibition at 50 µM on PAI-1 came to 34%. The inhibition at 100 µM at PAI-1 (100 μM) is 25%.

Regarding `CN(C)CCCOc1ccc(/C=c2\[nH]c(=O)/c(=C/c3ccc4ccccc4c3)[nH]c2=O)cc1` [Compound 5188, (3Z,6Z)-6-(4-(3-Dimethylaminopropoxy)benzylidene)-3-(2-Naphthylmethylene)-2,5-piperazinedione], at PAI-1 (20 μM), the inhibition at 20 µM turned out to be 94%. In addition, the inhibition at 100 µM on PAI-1 (100 μM) was 90%. In addition, on PAI-1, inhibition was half-maximal at 3.5 µM (IC50).

With `CN(C)CCCOc1ccc(/C=c2\[nH]c(=O)/c(=C/c3cccc4ccccc34)[nH]c2=O)cc1` [Compound 5200, (3Z,6Z)-6-(4-(3-Dimethylaminopropoxy)benzylidene)-3-(1-Naphthylmethylene)-2,5-piperazinedione], the INHIBITION OF PAI-1 (degree of inhibition) at PAI-1 (20 μM) and at PAI-1 (100 μM) was 10% in each case.

As to `CN(C)CCCOc1ccc(/C=c2\[nH]c(=O)/c(=C/c3cccc4ccccc34)[nH]c2=O)cc1` [Compound 5205], the results for the INHIBITION OF PAI-1 (degree of inhibition) at PAI-1 (20 μM) and at PAI-1 (100 μM) were 33% and 56%, respectively. On PAI-1, inhibition was half-maximal at 100 µM (IC50).

On to `CN(C)CCCOc1ccc(/C=c2\[nH]c(=O)/c(=C/c3ccc4ccccc4c3)[nH]c2=O)cc1` [Compound 5206], for which the INHIBITION OF PAI-1 (degree of inhibition) on PAI-1 (20 μM) came to 78%; at PAI-1 (100 μM) it was 72%. The concentration for half-maximal inhibition (IC50) against PAI-1 amounted to 3 µM.

Take `CN(C)CCN(C)c1ccc(/C=c2\[nH]c(=O)/c(=C/c3ccccc3)[nH]c2=O)s1` [Compound 5299, (3Z,6Z)-6-Benzylidene-3-(5-(2-dimethylaminoethyl)methylamino-2-thienylmethylene)-2,5-piperazinedione]: the half-maximal inhibitory concentration (IC50) against PAI-1 is 7 µM. In other words, the single-digit micromolar range.

`CN(C)CCOc1ccc(/C=c2\[nH]c(=O)/c(=C/c3ccccc3)[nH]c2=O)s1` [Compound 5324, (3Z,6Z)-6-Benzylidene-3-(5-(2-dimethylaminoethoxy)-2-thienylmethylene)-2,5-piperazinedione] registered a concentration for half-maximal inhibition (IC50) against PAI-1 of 9 µM.

Regarding `CN(C)CCOc1csc(/C=c2\[nH]c(=O)/c(=C/c3ccccc3)[nH]c2=O)c1` [Compound 5327, (3Z,6Z)-6-Benzylidene-3-(4-(2-dimethylaminoethoxy)-2-thienylmethylene)-2,5-piperazinedione], the inhibition at 20 µM on PAI-1 (20 μM) came out at 17%.

As for `CN(C)CCc1ccc(/C=c2\[nH]c(=O)/c(=C/c3ccccc3)[nH]c2=O)s1` [Compound 5335, (3Z,6Z)-6-Benzylidene-3-(5-(2-dimethylaminoethyl)-2-thienylmethylene)-2,5-piperazinedione], the IC50 on PAI-1 turned out to be 22 µM.

`CN(C)CCCOc1ccc(/C=c2\[nH]c(=O)/c(=C/c3ccc(C(=O)N4CCc5ccccc5C4)cc3)[nH]c2=O)cc1` [Compound 5367] yielded an IC50 on PAI-1 of 18 µM.

Regarding `O=C(NCCCCN1CCc2ccccc2C1)c1ccc(/C=c2\[nH]c(=O)/c(=C/c3ccccc3)[nH]c2=O)cc1` [Compound 5371, N-(4-(1,2,3,4-Tetrahydro-2-isoquinolyl)butyl)-4-((3Z,6Z)-6-benzylidene-2,5-dioxo-3-piperazinylidene)methylbenzamide], on PAI-1, the IC50 is 12 µM. Against the preceding molecule, the IC50 is about 1.5-fold lower.

Take `CN(C)CCCOc1ccc(/C=c2\[nH]c(=O)/c(=C/c3ccc(C(=O)N4CCc5ccccc5C4)cc3)[nH]c2=O)cc1` [Compound 5376]: inhibition against PAI-1 was half-maximal at 12 µM (IC50). This counts as double-digit micromolar.

As for `O=C(NCCCCN1CCc2ccccc2C1)c1ccc(/C=c2\[nH]c(=O)/c(=C/c3ccccc3)[nH]c2=O)cc1` [Compound 5379], on PAI-1 (20 μM), the inhibition at 20 µM was determined as 65%. Further, the IC50 at PAI-1 stood at 15 µM.

Turning to `CN(C)CCCOc1ccc(/C=c2\[nH]c(=O)/c(=C/c3ccc(C(=O)NCCN4CCc5ccccc5C4)cc3)[nH]c2=O)cc1` [Compound 5386, N-(2-(1,2,3,4-Tetrahydro-2-isoquinolyl)ethyl)-4-((3Z,6Z)-6-(4-(3-dimethylaminopropoxy)benzylidene)-2,5-dioxo-3-piperazinylidene)methylbenzamide], it took 18 µM to reach half-maximal inhibition against PAI-1 (IC50).

As for `CN(C)CCOCCOc1ccc(/C=c2\[nH]c(=O)/c(=C/c3ccccc3)[nH]c2=O)s1` [Compound 5388, (3Z,6Z)-6-Benzylidene-3-(5-(2-(2-dimethylaminoethoxy)ethoxy)-2-thienylmethylene)-2,5-piperazinedione], the inhibition at 20 µM at PAI-1 (20 μM) was determined as 58%. Besides, on PAI-1, it took 9 µM to reach half-maximal inhibition (IC50).

In turn, `CN(C)CCOCCOc1ccc(/C=c2\[nH]c(=O)/c(=C/c3ccccc3)[nH]c2=O)s1` [Compound 5388.HCl] yielded an INHIBITION OF PAI-1 (degree of inhibition) at PAI-1 (20 μM) of 60%. The concentration for half-maximal inhibition (IC50) on PAI-1 worked out at 12 µM.

`CN(C)CCCCCCOc1ccc(/C=c2\[nH]c(=O)/c(=C/c3ccccc3)[nH]c2=O)s1` [Compound 5389, (3Z,6Z)-6-Benzylidene-3-(5-(6-dimethylaminohexyloxy)-2-thienylmethylene)-2,5-piperazinedione]: the inhibition at 20 µM on PAI-1 (20 μM) was 55%. The same molecule returned an IC50 against PAI-1 of 2.5 µM.

Molecule `CN(C)CCCCCCOc1ccc(/C=c2\[nH]c(=O)/c(=C/c3ccccc3)[nH]c2=O)s1` [Compound 5389.HCl] displayed an INHIBITION OF PAI-1 (degree of inhibition) at PAI-1 (20 μM) of 57%.

With `O=C(NCCN1CCc2ccccc2C1)c1ccc(/C=c2\[nH]c(=O)/c(=C/c3ccccc3)[nH]c2=O)cc1` [Compound 5391, N-(2-(1,2,3,4-Tetrahydro-2-isoquinolyl)ethyl)-4-((3Z,6Z)-6-benzylidene-2,5-dioxo-3-piperazinylidene)methylbenzamide], the INHIBITION OF PAI-1 (degree of inhibition) at PAI-1 (20 μM) worked out at 64%. On PAI-1, the midpoint of inhibition, the IC50, lay at 6.5 µM.

Regarding `O=C(NCCN1CCc2ccccc2C1)c1ccc(/C=c2\[nH]c(=O)/c(=C/c3ccccc3)[nH]c2=O)cc1` [Compound 5391.HCl], at PAI-1 (20 μM), the INHIBITION OF PAI-1 (degree of inhibition) was 100%. On PAI-1, this molecule had a concentration for half-maximal inhibition (IC50) of 3.5 µM.

`COc1cc2c(cc1OC)CN(CCc1ccc(NC(=O)c3ccc(/C=c4\[nH]c(=O)/c(=C/c5ccccc5)[nH]c4=O)cc3)cc1)CC2` [Compound 5393.HCl] registered an INHIBITION OF PAI-1 (degree of inhibition) on PAI-1 (20 μM) of 58%. At PAI-1, the IC50 is 20 µM.

Take `COc1cc2c(cc1OC)CN(CCc1ccc(NC(=O)c3ccc(/C=c4\[nH]c(=O)/c(=C/c5ccccc5)[nH]c4=O)cc3)cc1)CC2` [Compound 5393]: the inhibition at 20 µM at PAI-1 (20 μM) worked out at 76%. The same molecule displayed a 50% inhibitory concentration (IC50) against PAI-1 of 14 µM.

`O=C(NCCCN1CCc2ccccc2C1)c1ccc(/C=c2\[nH]c(=O)/c(=C/c3ccccc3)[nH]c2=O)cc1` [Compound 5394, N-(3-(1,2,3,4-Tetrahydro-2-isoquinolyl)propyl)-4-((3Z,6Z)-6-benzylidene-2,5-dioxo-3-piperazinylidene)methylbenzamide]: the inhibition at 20 µM at PAI-1 (20 μM) came to 59%. In addition, half-maximal inhibition on PAI-1 (IC50) was put at 16 µM.

`O=C(NCCCN1CCc2ccccc2C1)c1ccc(/C=c2\[nH]c(=O)/c(=C/c3ccccc3)[nH]c2=O)cc1` [Compound 5394.HCl] yielded an INHIBITION OF PAI-1 (degree of inhibition) on PAI-1 (20 μM) of 62%. The molecule further gave a half-maximal inhibitory concentration (IC50) on PAI-1 of 17 µM.

For `CN(C)CCCOc1ccc(/C=c2\[nH]c(=O)/c(=C/c3ccc(C(=O)NCCCCN4CCc5ccccc5C4)cc3)[nH]c2=O)cc1` [Compound 5397, N-(4-(1,2,3,4-Tetrahydro-2-isoquinolyl)butyl)-4-((3Z,6Z)-6-(4-(3-dimethylaminopropoxy)benzylidene)-2,5-dioxo-3-piperazinylidene)methylbenzamide], the INHIBITION OF PAI-1 (degree of inhibition) on PAI-1 (20 μM) is 42%.

Molecule `CN(C)CCCOc1ccc(/C=c2\[nH]c(=O)/c(=C/c3ccc(C(=O)NCCCCN4CCc5ccccc5C4)cc3)[nH]c2=O)cc1` [Compound 5397.HCl] came in with an INHIBITION OF PAI-1 (degree of inhibition) on PAI-1 (20 μM) of 21%.

Consider `COc1cc2c(cc1OC)CN(CCc1ccc(NC(=O)c3ccc(/C=c4\[nH]c(=O)/c(=C/c5ccc([N+](=O)[O-])cc5)[nH]c4=O)cc3)cc1)CC2` [Compound 5402], for which the inhibition at 20 µM at PAI-1 (20 μM) was 37%.

Take `Cn1c(=O)/c(=C/c2ccccc2)[nH]c(=O)/c1=C/c1ccccc1` [piperafizine A]: the “utility as potentiators of the cytotoxicity of vincristine” value in series [1] is given as “potentiators of the cytotoxicity of vincristine”.

Turning to `O=c1[nH]/c(=C\c2ccccc2)c(=O)[nH]/c1=C\c1ccccc1` [piperafizine B], in series [1], the “utility as potentiators of the cytotoxicity of vincristine” value is on record as “potentiators of the cytotoxicity of vincristine”.
